For assay [1], the system named is ROR1-positive Ntera-2 cells. Nature of the assay: Induction of immunogenic cell death markers (calreticulin by FACS, HMGB1 by ELISA). It counts as cell-based, human. Conditions: 3 days treatment. Here is the method:
ROR1-positive Ntera-2 cells were treated with Conjugate 46 or exatecan for 3 days. Calreticulin on the cell surface was measured by FACS and HMGB1 in the cell culture medium were measured by ELISA. […] FIG. 20A and FIG. 20B illustrate calreticulin expression and HMGB1 release of Ntera-2 cells in the presence of Conjugate 46 or exatecan compared to the un-conjugated antibody and an isotype control of Conjugate 46.

Assay [2] relates to ROR1 positive Ntera-2 cell. Nature of the assay: In vitro cell killing of ROR1 ADCs, ROR1 positive cells (Cell Titer-Glo, 120 hours). Conditions: Table 13. It counts as cell-based, human. The text has this:
(§1) Ntera-2, MDA-MB-231, MCF7, HCT116 and Mino cells were obtained from ATCC. HCT116-hRor1-D02 clone was generated by transfecting HCT116 cells with a plasmid containing human Ror1 cDNA sequence and selected for highest stable expression of hRor1 on the cell surface. MDA-MB-231, MCF7, HCT116 and HCT116-Ror1 cell were maintained in Ham's F-12 high glucose DMEM (50-50) (Cellgro-Mediatech; Manassas, VA) supplemented with 10% heat-inactivated fetal bovine serum (Hyclone; Thermo Scientific; Waltham, MA), 1% Penicillin/Streptomycin (Cellgro-Mediatech; Manassas, VA) and 2 mmol/L-glutamax (Life Technology; Carlsbad, CA). Mino cells were maintained in RPMI-1640 medium (Cellgro-Mediatech; Manassas, VA) supplemented with 20% heat-inactivated fetal bovine serum (Hyclone; Thermo Scientific; Waltham, MA), 1% Penicillin/Streptomycin (Cellgro-Mediatech; Manassas, VA) and 2 mmol/L-glutamax (Life Technology; Carlsbad, CA).
(§2) Anti-ROR1 antibody was conjugated to different linker-warheads described herein at different DARs and the cell killing activity of the ADCs were evaluated on ROR1 positive Ntera-2 cell and ROR1 negative MCF7 cells.
(§3) Ntera-2 or MCF7 cell at 625 cells/25 μL were seeded in a 384-well flat bottom white polystyrene plate one day before the assay start. ADCs were formulated at 2× starting concentration. Filter sterilized samples were serial diluted (1:3) under sterile conditions and added onto cells in triplicates. Plates were cultured at 37° C. in a CO2 incubator for 120 hours. […] Relative luminescence was measured on an ENVISION® plate reader (Perkin-Elmer; Waltham, MA). Relative luminescence readings were converted to % viability using untreated cells as controls. […]
(§4) To evaluate if the cell killing activity of anti-ROR1 ADCs is dependent on antibody binding to ROR1 expressed on cell surface, the same linker-warheads (LP3, LP4) were conjugated to an anti-GFP antibody and the cell killing of the anti-ROR1 and anti-GFP ADCs were evaluated in cell killing assays on ROR1 positive Ntera-2 cell and ROR1 negative MCF7 cells.
Background: ATP-based viability assays read luminescence as a measure of living cells.

In assay [3] the test system is ROR1-positive Ntera-2 cells co-cultured with PMBCS. Nature of the assay: Ntera-2 / PBMC co-culture: target cell killing and monocyte activation (FACS). The class given is cell-based, human. As for the experimental part: ROR1-positive Ntera-2 cells were co-cultured with PMBCS at E:T=[…] and treated with Conjugate 46 or exatecan for 3 days. Live target cell count and monocyte activation were measured by FACS. […] FIG. 21A and FIG. 21B are graphs showing the percent of live target cells and monocyte activation in Ntera-2 cells following treatment with Conjugate 46 or exatecan compared to the un-conjugated antibody and an isotype control of Conjugate 46. […] Unconjugated anti-ROR1 antibody or a non-targeted ADC had no activity. […] Viability and calreticulin surface expression were measured and presented as a percentage compared to untreated cells.

For assay [4], the system named is ROR1 negative MCF7 cells. Nature of the assay: In vitro cell killing of ROR1 ADCs, ROR1 negative cells (Cell Titer-Glo, 120 hours). To be noted: Table 13. The class given is cell-based, human.
Source text: as §1, §2, §3, §4

In assay [5] the test system is TNBC PDX tumors. Nature of the assay: TNBC PDX models, single agent or combination with olaparib. It counts as in vivo, athymic nude Fox1^nu mice. Conditions: CTG-0437, CTG-1017, and CTG-2055; olaparib p.o. 50 mg/kg qd×28. An excerpt:
The activity of Conjugate 46 as a single agent or in combination with the PARP inhibitor olaparib was additionally assessed in TNBC PDX models. Briefly, PDX tumors, spanning varying levels of ROR1 expression and sensitivity to olaparib, were passaged in athymic nude Fox1^nu mice before being processed into tumor fragments for subcutaneous implantation into the hind flank of mice for study initiation. When tumors reached a volume of around 150-300 mm^3, the mice were randomized and enrolled into the study. Tumor-bearing mice were administered up to three weekly doses (qw×3) of Conjugate 46 i.v. at 5 mg/kg and up to twenty-eight daily doses (qd×28) of olaparib p.o. at 50 mg/kg.
Combination treatment with Conjugate 46 and olaparib (50 mg/kg, qd×28) is conducted using a 2 mg/kg, qw×3 dosing regimen for Conjugate 46. The combination therapy is assessed in six TNBC PDX models as described in Example 26.

Assay [6] concerns MDA-MB-231 tumor. As to the kind of experiment: MDA-MB-231 TNBC xenograft model. It counts as in vivo, SCID/beige mice. As for the experimental part:
The activities of ROR1-targeted ADCs described herein were examined in a MDA-MB-231 TNBC xenograft model. Briefly, SCID/beige mice were implanted subcutaneously with 5×10^6 MDA-MB-231 tumor cells in the mammary fat pad and randomized and enrolled into the study 7 days post implant, with tumor sizes around 130 mm^3. Tumor-bearing mice were administered four weekly doses (qw×4) of the test articles at doses ranging from 2 mg/kg to 5 mg/kg. All treatments were well tolerated with normal body weight gain throughout the course of the study.
SCID/beige mice were implanted subcutaneously with 5×10^6 MDA-MB-231 tumor cells in the mammary fat pad and randomized and enrolled into the study 7 days post implant, with tumor sizes around 130 mm^3. Tumor-bearing mice were administered four weekly doses (qw×4) of the test articles at doses ranging from 2 mg/kg to 5 mg/kg. All treatments were well tolerated with normal body weight gain throughout the course of the study.
SCID/beige mice were implanted subcutaneously with 5×10^6 MDA-MB-231 tumor cells in the mammary fat pad and randomized and enrolled into the study 7 days post implant, with tumor sizes around 130 mm^3. Tumor-bearing mice were administered three weekly doses (qw×3) of the test articles at doses ranging from 2 mg/kg to 5 mg/kg. All treatments were well tolerated with normal body weight gain throughout the course of the study. […]

Assay [7] concerns the target T1, hROR1 (ROR1-extracellular domain) (Homo sapiens, UniProt Q01973).
T1 construct: the ROR1-extracellular domain (hROR1); purchased Acro Biosystems
Nature of the assay: Biacore off-rate and kinetic analysis, ROR1 extracellular domain. To be noted: Sample ROR1 ECD, SPR. The class given is binding. Here is the method: Anti-Fc polyclonal antibodies were immobilized onto a CM5 chip (GE Life Sciences) using amine coupling chemistry (from Amine Coupling Kit, GE Life Sciences). The immobilization steps were carried out at a flow rate of 25 μL/min in 1×HBS-EP+ buffer (GE Life Sciences; 10× Stock diluted before use). The sensor surfaces were activated for 7 min with a mixture of NHS (0.05 M) and EDC (0.2 M). The Anti-Fc antibodies were injected over all 4 flow cells at a concentration of 25 ug/ml in 10 mM sodium acetate, pH 4.5, for 7 min. Ethanolamine (1 M, pH 8.5) was injected for 7 min to block any remaining activated groups. […]
The data was fit with the Biacore T200 Evaluation software, using a 1-1 Langmuir binding model. KD (affinity, nM) was determined as a ratio of the kinetic rate constants calculated from the fits of the association and dissociation phases.
For anti-CD3-LC-containing IgGs that had detectable ROR1-binding in ELISA (1944-A07 and 1987-C05 variants), those antibodies were further tested for binding by surface plasmon resonance (SPR). Binding kinetics were assessed to the ROR1-frizzled domain (hROR1-Fz) or the ROR1-extracellular domain (hROR1) for 1944-A07 and 1987-C05 variants, respectively. […] KD (affinity, nM) was determined as a ratio of the kinetic rate constants calculated from the fits of the association and dissociation phases.
(In general: SPR reads the build-up and loss of mass on a sensor chip optically.)

Where [8] appears, read: co-culture with PMBCS at E:T=10.1, 3 days.

On to `CC[C@@]1(O)C(=O)OCc2c1cc1n(c2=O)Cc2c-1nc1cc(F)c(C)c3c1c2[C@@H](N)CC3` [exatecan], for which the “markers for immunogenic cell death (calreticulin translocation to the cell surface and HMGB1 release)” value in assay [1] was “induced markers for immunogenic cell death”. In assay [2], the “NTERA-2 Span” value is listed as 98%. In assay [3] (setting [8]), the “cell killing of target cells (live target cell count)” value is “induced potent cell killing of target cells” and the “monocyte activation (CD86 expression)” value was “potently induced monocyte activation”. Further, in assay [3] (concomitant with reduced viability (FIG. 21C)), the “calreticulin on the cell surface” value was “calreticulin could be detected on the cell surface”. Further, the “MCF-7 Span” value in assay [4] is 91%.
As to `O=C(c1cc(Cc2n[nH]c(=O)c3ccccc23)ccc1F)N1CCN(C(=O)C2CC2)CC1` [olaparib], the “tumor growth suppression, single agent” value in assay [5] was “moderate tumor growth suppression”.

B1: Conjugate 4 (conjugate)
heavy: MEVQLVESGGGLVQPGGSLRLSCAASGFNISDYDIHWVRQAPGKGLEWVGGIDPADGSTDYADSVKGRFTISADTSKNTAYLQMNSLRAEDTAVYYCARDYGVYDYWGQGTLVTVSSASTKGPSVFPLAPSSKSTSGGTAALGCLVKDYFPEPVTVSWNSGALTSGVHTFPAVLQSSGLSLSSVVTVPSSSLGTQTYICNVNHKPSNTKVDKKVEPKSCDKTHTCPPCPAPELLGGPSVFLFPPKPKDTLMISRTPEVTCVVVDVSHEDPEVKFNWYVDGVEVHNAKTKPREEQYNSTYRVVSVLTVLHQDWLNGKEYKCKVSNKALPAPIEKTISKAKGQPREPQVYTLPPSREEMTKNQVSLTCLVKGFYPSDIAVEWESNGQPENNYKTTPPVLDSDGSFLYSKLTVDKSRWQQGNVFSCSVMHEALHNHYTQKSLSLSPGK
light: MDIQMTQSPSSLSASVGDRVTITCRASQDVNTAVAWYQQKPGAPKLLIYSASFLYSGVPSRFSGSRSGTDFTLTISSLQPEDFATYYCQQHYTTPPTFGQGTKVEIKRTVAAPSVFIFPPSDEQLKSGTASVVCLLNNFYPREAKVQWKVDNALQSGNSQSVTEQDSKDSTYSLSSTLTLSKADYEKHKVYACEVTHQGLSSPVTKSFNRGEC
The TGI is the reduction of tumour growth relative to the control group. Take B1: the TGI in assay [6] (Example 20, day 42, 2 mg/kg qw×4) worked out at 36%; in assay [6] (Example 21, day 43, 5 mg/kg qw×4) it was 23%.

B2: 1987-C05 HC w/hUCHT1 LC3: HC of lead antibody 1987-C05 co-expressed with LC "derived from anti-CD3 antibodies": hUCHT1-LC3 (antibody, V domains shown)
VH: EVQLVESGGGLVQPGGSLRLSCAASGFNISDYDIHWVRQAPGKGLEWVGGIDPDDGSTDYADSVKGRFTISADTSKNTAYLQMNSLRAEDTAVYYCARDYGVFDYWGQGTLVTVSS
VL: DIQMTQSPSTLSASVGDRVTITCRASQDIRNYLNWYQQKPGKAPKLLIYYTSRLHSGVPSRFSGSGSGTEYTLTISSLQPDDFATYYCQQGNTLPWTFGGGTKVEIK
The molecule B2 yielded a kd1 in assay [7] of 0.000645 s⁻¹. For the same molecule, the ka1 in assay [7] (1-1 Langmuir) was determined as 566000 M⁻¹ s⁻¹.

(Values after patent US12226490B2, “Anti-ROR1 antibody conjugates, compositions comprising anti ROR1 antibody conjugates, and methods of making and using anti-ROR1 antibody conjugates preliminary class” (Sutro Biopharma, Inc., priority 2022, dated 2025).)
